Activity calls are given as the source filed them. The calls are words filed in the database; no cut-off is given here.
Tests used:
Format in all cases: cell-based
[1] = test system: Shh Light II; assay: Inhibition of GLI in SAG induced mouse Shh Light II cells assessed as residual Smo-dependent Gli luciferase activity in starvation medium at 100 nM incubated for 30 hrs by dual luciferase assay
[2] = test system: Sufu-KO-LIGHT; assay: Inhibition of GLI in SAG induced mouse Sufu-KO-LIGHT cells assessed as residual Smo-independent Gli luciferase activity in starvation medium at 100 nM incubated for 30 hrs by dual luciferase assay
[3] = Inhibition of GLI in SAG induced mouse Sufu-KO-LIGHT cells assessed as residual Smo-independent Gli luciferase activity in starvation medium incubated for 30 hrs by dual luciferase assay
[4] = Inhibition of GLI in SAG induced mouse Shh Light II cells assessed as residual Smo-dependent Gli luciferase activity in starvation medium incubated for 30 hrs by dual luciferase assay
[5] = Inhibition of GLI in SAG induced mouse C3H10T1/2 cells assessed reduction Gli-dependent differentiation by measuring ALP activity incubated for 48 hrs by chemiluminescence assay; conditions: C3H 10T1/2, 48 h
[6] = test system: NIH/3T3; assay: Inhibition of GLI in mouse NIH/3T3 cells assessed as reduction in CMV-driven firefly luciferase activity in starvation medium at 100 nM incubated for 30 hrs by Bright-Glo luciferase assay
[7] = test system: ASZ001; assay: Inhibition of GLI in mouse ASZ001 cells assessed as reduction in cell viability in starvation medium at 1.5 uM incubated for 48 hrs by CellTiter assay relative to control
[8] = Inhibition of GLI in mouse ASZ001 cells assessed as reduction in cell viability in starvation medium incubated for 48 hrs by CellTiter assay; conditions: ASZ001, 48 h

Row | Compound | Activity [1] | Activity [2] | IC50 [3] | IC50 [4] | IC50 [5] | Activity [6] | inhibition [7] | IC50 [8]
1 | C=CC(C)(C)c1ccc2c3c(c[nH]c13)C[C@@H](CO)NC(=O)[C@H](C(C)C)N2C [PENDOLMYCIN] | 60% | 46% | > 5000 nM | > 5000 nM |  |  |  | 
2 | CC(=O)n1cc2c3c(cccc31)N(C)[C@@H](C(C)C)C(=O)N[C@H](CO)C2 | 73% | 67% | 655 nM | 195 nM |  |  |  | 
3 | COC(=O)[C@@H]1Cc2c[nH]c3cccc(c23)N(C)[C@@H](C(C)C)C(=O)N1 | 99% | 67% | 77 nM | 3460 nM |  |  |  | 
4 | CCC(C)[C@H]1C(=O)N[C@H](CO)Cc2c[nH]c3cccc(c23)N1C (some centres not stated) | 53% | 36% | 6.8 nM | 33 nM | 30 nM | Active |  | 
5 | CC(C)[C@H]1C(=O)N[C@H](CO)Cc2c[nH]c3cccc(c23)N1C [INDOLACTUM] | 68% | 39% | 13 nM | 33 nM | 171 nM | Active | 62% | 
6 | COC[C@@H]1Cc2cn(C)c3cccc(c23)N(C)[C@@H](C(C)C)C(=O)N1 | 86% | 69% | 1820 nM | 478 nM |  |  |  | 
7 | CC(C)[C@H]1C(=O)N[C@H](CO)Cc2cn(C)c3cccc(c23)N1C | 66% | 42% | 20 nM | 69 nM | 498 nM | Active |  | 
8 | CC(C)[C@H]1C(=O)N[C@H](CO)Cc2c[nH]c3c(Br)ccc(c23)N1C | 70% | 23% | 264 nM | 1280 nM |  |  |  | 
9 | CCCCCCn1cc2c3c(cccc31)N(C)[C@@H](C(C)C)C(=O)N[C@H](CO)C2 | 83% | 25% | 7.9 nM | 113 nM | 27 nM | Active | 38% | 0.5 nM
10 | C=C[C@@](C)(CCC=C(C)C)c1ccc2c3c(c[nH]c13)C[C@@H](CO)NC(=O)[C@H](C(C)C)N2C | 90% | 47% | > 5000 nM | > 5000 nM |  |  |  | 
11 | CC(C)[C@H]1C(=O)N[C@@H](CO)Cc2c[nH]c3cccc(c23)N1C | 100% | 78% | 1920 nM | > 5000 nM | > 5000 nM |  |  | 
12 | CC(C)[C@H]1C(=O)N[C@H](CO)Cc2cc(NC(=O)/C=C/C=C/c3ccc(C(F)(F)F)cc3)ccc2N1C (stereo in doubt) |  |  |  |  |  |  |  | 0.16 nM
13 | CS(=O)(=O)c1ccc(C(=O)Nc2ccc(Cl)c(-c3ccccn3)c2)c(Cl)c1 [VISMODEGIB] | 43% | 96% | > 5000 nM | 37 nM | 58 nM |  |  | 2 nM
14 | CC(C)[C@H]1C(=O)N[C@H](CO)Cc2cn(C(C)C)c3cccc(c23)N1C | 96% | 78% | 464 nM | 309 nM |  |  |  | 
